In US6894060B2, “Method for the treatment of dermal lesions caused by envenomation” (3M Innovative Properties Company, priority 2000, dated 2005):

Test system: Loxosceles reclusa envenomation (spider bite dermal lesions)
Test: Treatment of Loxosceles reclusa envenomation with imiquimod 5% cream (consecutive clinical cases)
Type: in vivo, human
Experimental: A consecutive series of 7 bites on 5 patients were treated with imiquimod 5% cream (available under the tradename ALDARA from 3M Pharmaceuticals, St. Paul, Minn., USA) applied by the clinic staff, three times per week (typically Monday, Wednesday and Friday) for two weeks. Sufficient cream was used to cover the area of erythema, rubbing the cream gently until it “vanished” as per labeled instructions. In addition, a single intramuscular dose of ceftriaxone 1 gm was given together with oral dicloxicillin, 500 mg bid for 10 days. Patients were re-examined by a physician at 7, 14 and 28 days following initiation of therapy.

CC(C)Cn1cnc2c(N)nc3ccccc3c21 [imiquimod, 1-(2-methylpropyl)-1H-imidazo[4,5-c]quinolin-4-amine]
improvement in induration and erythema by day 7 (7 bites in 5 patients): Marked improvement | resolution of induration and erythema by day 14 (7 bites in 5 patients): full resolution in all but one case | cases with necrosis (7 consecutive cases, versus historical rate 7/12 (0.583): binomial p=0.002, Chi-square p=0.01): 0 out of 7 | residual scarring or pigmentation changes (day 28 follow-up visit): No residual scarring or pigmentation changes | development of necrosis (imiquimod treated cases, 7 bites in 5 patients): Necrosis did not develop in any | erythema, 14 Day Follow-up (patient five, right calf bite): present | ulcer status, 14 Day Follow-up (patient five, right calf bite): Ulcer healed | erythema, 7 Day Follow-up (patient five, right calf bite, 1.2 cm erythema at presentation): No erythema | ulcer, 7 Day Follow-up (patient five, right calf bite, 1.8 cm central core at presentation): 0.75 cm ulcer | erythema resolved by (day) (patient five, right calf bite, erythema present at day 14): d28) | pain, 7 Day Follow-up (patient five, right calf bite, painful at presentation): Decreased pain | reappearance of erythema, presumed to be secondary to imiquimod (patient five, erythema cleared at the day 7 visit): developed again by day 14 | lesion status, 14 Day Follow-up (patient four, right calf bite): Completely | induration, 7 Day Follow-up (patient four, right calf bite, 1.5 cm induration at presentation, cream three times per week for two weeks): 0.5 cm | erythema, 7 Day Follow-up (patient four, right calf bite, 9 cm erythema at presentation): No erythema | pain or tenderness, 7 Day Follow-up (patient four, right calf bite, painful at presentation): No pain or | lesion status, 14 Day Follow-up (patient one, right calf bite): Completely | firm induration, 7 Day Follow-up (patient one, right calf bite, 1.3 cm induration at presentation): 1.25 cm firm | induration (second entry of the cell), 7 Day Follow-up (patient one, right calf bite, 10 cm erythema at presentation): 5 cm | tenderness, 7 Day Follow-up (patient one, right calf bite, very painful at presentation): Non-tender | time from bite to resolution (patient three, first bite): 9 days | lesion status, 7 Day Follow-up (patient three, left buttock bite, 1.0 cm induration, erythema, painful at presentation): Completely | lesion status, 14 Day Follow-up (patient three, right thigh bite): Completely | central core, 7 Day Follow-up (patient three, right thigh bite, 1.5 cm induration at presentation): 2.5 cm | erythema, 7 Day Follow-up (patient three, right thigh bite, 7.5 × 11 cm erythema at presentation): No erythema | pain or tenderness, 7 Day Follow-up (patient three, right thigh bite, tender at presentation): No pain or | lesion status, 14 Day Follow-up (patient two, left thigh bite): Completely | central core, 7 Day Follow-up (patient two, left thigh bite, 1.0 cm central core at presentation): 0.5 cm | erythema, 7 Day Follow-up (patient two, left thigh bite, 6.0 cm erythema at presentation): 2.0 cm | lesion status, 14 Day Follow-up (patient two, right breast bite): Completely | central core, 7 Day Follow-up (patient two, right breast bite, 1.2 cm central core at presentation): 1.0 cm | erythema, 7 Day Follow-up (patient two, right breast bite, 3.0 cm erythema at presentation): No erythema | time to pain relief following the first dose (reported by all patients, 7 bites in 5 patients): 1 to 2 days
